{"source": "patent US20210054047A1", "about": "“NOVEL ANTICANCER FUSION PROTEIN AND USE THEREOF” (KOREA INSTITUTE OF SCIENCE AND TECHNOLOGY, priority 2018, published 2021)", "key": {"[1]": {"system": "HepG2 cells", "assay": "Annexin V/PI flow cytometry of apoptosis, HepG2", "assay_type": "cell-based, human", "conditions": "for surviving tumor cells (Annexin V/PI double negative): 24 hours", "protocol": "FIG. 19 is a series of histograms representing flow cytometry analysis of TRAIL-mediated apoptosis of HepG2 cells as an analysis of in vitro TTPN-mediated apoptosis on TRAIL-sensitive-HepG2 cells. Cells were incubated for 24 hours in the presence of different concentrations of mTRAIL and TTPN and analyzed by Annexin V/PI double staining.\nIn addition, to investigate whether apoptosis induced by TTPN is induced by the pro-apoptosis pathway of tumor cells, fluorescence-activated cell sorting (FACS) using double staining of Annexin V/propidium iodide (PI) was performed. […] (FIG. 21)."}, "[2]": {"system": "HepG2 tumors", "conditions": "mouse, in vivo, iv", "protocol": "The delivery efficiency of TTPN to the tumor microenvironment was investigated by performing an in vivo biodistribution study (n=4 mice/group) of Cy5.5-labeled TTPN using the eXplore Optix System (Advanced Research Technologies Inc., USA). […] Free-Cy5.5 was separated by ultrafiltration (Amicon Ultra 100 K, Millipore), and the fluorescence intensity of the Cy5.5-labeled protein was measured using a fluorescence microplate reader (Infinite M200 Pro, TECAN, Austria). […] The fluorescence intensity of all samples was adjusted to the same value based on the data obtained using a fluorescence microplate reader. To analyze the fluorescence intensity of tumors, the Analysis Workstation software (Advanced Research Technologies Inc.) was used to calculate total photons per […] per steradian (p/s/cm^2/sr) in the region of interest (ROI). At 24 hours post-injection, the mice were sacrificed, and tumors and major organs including liver, lung, spleen, kidney and heart were excised and analyzed in the same manner as described above."}, "[3]": {"system": "HepG2 tumor", "assay": "Antitumor efficacy, HepG2 xenograft", "assay_type": "in vivo, mouse", "description": "(§1) In the evaluation of the anti-tumor effect of the present invention, BALB/c nude male mice (6-7 weeks old) were used as an animal model. Particularly, HT29 cells (5×10^6) and HepG2 cells (5×10^6) were subcutaneously inoculated into the left dorsal flank of BALB/c nude mice, respectively. After a volume of tumors reached ˜80-100 mm^3, mice were randomly divided into the 14 following five treatment groups (6 mice/group); DOX-TTPNs, DOX-FTNs, free DOX, empty TTPNs, and buffer. Mice were intravenously injected five times, once every 2 days, and volume of tumors was determined as 1/2(Length×Width^2). Apoptotic cell death in tumor tissues was analyzed using TUNEL staining (In situ Cell Death Detection kit; Roche), and cells were stained with DAPI (4′,6-diamidino-2-phenylindole), as previously described (Kih et al., Biomaterials 180: 67-77, 2018). Apoptotic cells were visualized under a Nikon Eclipse Ti microscope (Nikon) and quantified as the number of TUNEL-positive cells per total number of cells using ImageJ software. After 21 days from injecting tumor cells, tumor tissues were excised from the experimental mice, and cryo-sections (3.5 μm) were fixed with 10% neutral buffered formalin and paraffin-embedded tissue blocks.\n(§2) In addition, to investigate whether tumor growth inhibition by TTPN is induced by apoptosis-inducing activity on tumor cells, tumor tissues from the treated mice were analyzed. On the 15th day after the first injection, mice were euthanized, and apoptosis of tumor tissues was analyzed using terminal deoxynucleotidyl transferase dUTP nick end labeling (TUNEL) staining."}, "[4]": {"system": "HepG2 tumor", "assay": "TUNEL analysis of HepG2 tumor tissue", "assay_type": "in vivo, mouse", "conditions": "15th day after first injection", "description": "as §1, with “After 21 days from injecting tumor cells, tumor tissues were excised from the experimental mice, and cryo-sections (3.5 μm) were fixed with 10% neutral buffered formalin and paraffin-embedded tissue blocks.” left out\nas §2"}, "[5]": {"system": "HT29 tumor", "assay": "Antitumor efficacy, HT29 xenograft", "assay_type": "in vivo, mouse", "conditions": "i.v. five times every 2 days, DOX-TTPNs 30 mg/kg, DOX 0.4 mg/kg, DOX-FTNs 15 mg/kg, empty TTPNs 30 mg/kg", "experimental": "To this end, HT29 cells were implanted in mice, and after tumor volumes reached approximately 80˜100 mm^3, mice were intravenously injected with 30 mg/kg of DOX-TTPNs (equivalent to a DOX dose of 0.4 mg/kg), 0.4 mg/kg of DOX, 15 mg/kg of DOX-FTNs (equivalent to the number of moles of ferritin in a dose of TTPNs), or 30 mg/kg of empty TTPNs (equivalent to the number of moles of TRAIL in a dose of TTPNs) five times every 2 days, respectively."}, "[6]": {"system": "HT29 tumor", "assay": "TUNEL analysis of HT29 tumor tissue", "assay_type": "in vivo, mouse", "conditions": "HT29 tumor tissue at the end of the study"}, "[7]": {"assay": "Transmission electron microscopy (TEM) size", "assay_type": "physicochemical", "protocol": "TEM analyses of TTPN and wtFTN were imaged by bio transmission electron microscopy (Hitachi). […] The hydrodynamic sizes of TTPN-DOX and TTPN were analyzed by dynamic light scattering (DLS) using a Zetasizer Nano ZS system (Malvern Instruments, Ltd., UK), as previously described (Zidi et al., Med. Oncol. 2010, 27(2): 185-198, 2010)."}}, "data": [{"substance": "TTPN: protein nanocage presenting TRAIL as natural-like homo-trimers; TRAIL 95-281 fused by linker peptide to human ferritin heavy chain", "values": [{"measurement": "surviving tumor cells (Annexin V/PI double negative)", "setting": "[1]; HepG2, 0.4 nM", "result": 83.5, "unit": "%"}, {"measurement": "surviving tumor cells (Annexin V/PI double negative)", "setting": "[1]; HepG2, 100 nM", "result": 12.0, "unit": "%"}, {"measurement": "concentration at which Annexin V-positive cells were detected", "setting": "[1]; HepG2, 24 hours (FIG. 20)", "result": 0.4, "unit": "nM"}, {"measurement": "fluorescence intensity of tumors", "setting": "[2]", "result": "higher than that of wtFTN and mTRAIL"}, {"measurement": "tumor volume inhibition relative to mTRAIL", "setting": "[3]", "result": 3.1, "unit": "times"}, {"measurement": "inhibition of tumor volume", "setting": "[3]; i.v. every 2 days, TTPN 23 mg/kg, mTRAIL 12 mg/kg", "result": 80.52, "unit": "%"}, {"measurement": "TUNEL-positive tumor cells", "setting": "[4]", "result": 84.4, "unit": "%"}, {"measurement": "decrease of tumor volumes", "setting": "[5]", "result": "no significant tumor-inhibition effect"}, {"measurement": "TUNEL-positive tumor cells", "setting": "[6]", "result": 0.01, "unit": "%"}, {"measurement": "average size (TEM)", "setting": "[7]", "result": "24-28 nm"}]}]}
